# Reference: paper PMC11555231 (Nature Communications, 2024)
# Bridge positions count the residues as written; N and C are the ends. Peptide text beside a SMILES is read from it.
# Experiments:
# [1] = system: cellular PADI4 in hPADI4-stable mES cell extracts; assay: Cell lysate activity assay, H3Cit2 immunoblot, with or without pre-incubation before calcium; type: biochemical, mouse; settings: inhibitor added 20 mins prior (pre-incubation) or concurrent with calcium
# Text: Neutrophil samples were boiled in a sodium dodecyl sulphate (SDS) buffer containing dithiothreitol (DTT) and run on a polyacrylamide gel electrophoresis (SDS-PAGE) using Criterion TGX precast gels (Any-KD; Bio-Rad Laboratories). Proteins were then transferred to a PVDF membrane (Bio-Rad Laboratories) via semi-dry transfer. The membrane was blocked with 5% BSA (Fisher Scientific) in Tris-buffered saline with 0.1% Tween-20 (TBS-T). Levels of citrullinated histone H3, total H3 and myeloperoxidase (MPO) were assessed by incubating membranes in either anti-histone H3 citrulline R2 + R8 + R17 (Abcam; ab5103 1:1000), anti-histone H3 (Millipore; 07-690 1:10000) or anti-MPO (DAKO; A0398 1:2500) overnight at 4 °C, respectively. For cell lysate-based assays and pull-down assays, membranes were incubated as above with anti-hPADI4 (Abcam; ab50332; 1:1000 in 5% BSA/TBS-T), anti-Bcr (Cell Signalling #3902S; 1:1000 in 3% milk/TBS-T) and anti-Impdh2 (Cell Signalling #57068S; 1:1000 in 3% milk/TBS-T). Membranes were washed in 0.1% TBS-T and subsequently incubated with goat anti-rabbit HRP or anti-goat (Fisher Scientific) for 1 h, followed by final washes in 0.1% TBS-T. Membranes were imaged with enhanced chemiluminescent substrate (ECL) (Thermo Fisher) on a Bio-Rad imager.
# Supplementary Figure 2. PADI4_3 is a potent and selective hPADI4 inhibitor. A. […]
# [2] = system: hPADI4-stable mES cells; assay: High content microscopy of citrullinated histone H3 (H3Cit) in hPADI4-stable mES cells; type: cell-based, mouse; settings: mean H3Cit intensity, peptide 1 h, without any other activating stimulus
# Experimental: HaLo-GFP-mito HeLa cells were grown in DMEM (Gibco) supplemented with 10% foetal bovine serum (FBS), penicillin/streptomycin (100 µg/ml) and puromycin (1 µg/ml) at 37 °C, 5% CO2. HaLo-GFP-mito HeLa cell line[82] was profiled by short tandem repeat analysis (STR) and tested negative for mycoplasma by the Cell Services Technology Platform at the Francis Crick Institute. E14 –mouse embryonic stem cells (Cambridge Stem Cell Institute, UK) were cultured in plates coated with 1% gelatine in GMEM supplemented with 10% foetal calf serum (FCS) batch-tested for ES cell culture (Gibco), 0.1 mM non-essential amino acids, 2 mM L-glutamine, 1 mM sodium pyruvate, 0.1 mM β-mercaptoethanol and 50 ng/mL leukaemia inhibitory factor (LIF) (ESGRO, Millipore). For PADI4 activation, cells were cultured in GMEM containing 10% knockout serum replacement (KSR, Life Technologies), 1% FCS batch-tested for ES cell culture (Gibco), 0.1 mM non-essential amino acids, L-glutamine, 1 mM sodium pyruvate, 0.1 mM β-mercaptoethanol, 50 ng/mL LIF (ESGRO, Millipore), 1 μM PD0325901 (AxonMedChem) and 3 μM CHIR99021 (AxonMedChem). For the generation of E14 mES stably expressing human PADI4 (hPADI4-stable), human PADI4 cDNA was inserted into ES E14 cells using the piggyBac transposon system. The Gateway system was used to clone human PADI4 into the piggyBac vector using primers PADI4_AttB1_F and PADI4_AttB2_R (Table S4). pPB-CAG-CTRL (empty vector) or pPB-CAG-hPADI4 vectors […] were transfected with the piggyBac transposase (pPBase) expression vector, pCAGPBase […], by lipofection according to the manufacturer’s instructions (Lipofectamine 2000, Invitrogen). E14 cells constitutively expressing the hygromycin resistance gene and human PADI4 were selected and expanded in media containing […] hygromycin.
# E14 cells were seeded onto 96-well PerkinElmer cell carrier ultra plates (Phenoplates) coated with 0.1% gelatine, at 25,000 cells per well and grown overnight at 37 °C, 5% CO2. Outer wells were excluded but medium was added to minimise any edge effects. […]
# [3] = system: HaLo-GFP-mito HeLa cells; assay: Chloroalkane penetration assay (CAPA); type: in vitro ADME; settings: CAPA, chloroalkane-tagged peptide, 4 h in Opti-MEM, 37 °C, chase HaLo-Tag TMR ligand 5 µM 15 min, flow cytometry; mean ± SEM of three independent experiments
# Experimental: Following the addition of chloroacetyl-NHS to the N-terminal amino group, Cys(mmt) was selectively deprotected using 1% TFA, 5% triisopropylsilane in DCM (30 min, RT). Peptides were then cyclised on resin using 2% diisopropylethylamine in DMF overnight. Following cyclisation, Lys(ivDde) was deprotected using 2% hydrazine in DMF. The resin was then washed (3 x DCM, 3 x DMF) before on-resin coupling of chloroalkane carboxylic acid was performed on the lysine side chain using Hexafluorophosphate Azabenzotriazole Tetramethyl Uronium / diisopropylethylamine in DMF for 2 h. Global deprotection and purification were then carried out as described above. Chloroalkane carboxylate was synthesised as previously described.
# CAPA assays were performed following the protocol published in ref. [51]. In brief, 40,000 HaLo- GFP-mito HeLa cells were seeded in a 96-well plate. Twenty-four hours later, cells were treated with different concentrations of chloroalkane-tagged peptides (100 µM to 200 nM for PADI4_3 and PADI4_3i and 50 µM to 100 nM for PADI4_11 and PADI4_11i) for 4 h in Opti-MEM. Media containing peptides was then removed, and cells were incubated with Opti-MEM (Gibco) for 15 min. After that time, the wash was removed, and cells were chased with HaLo-Tag TMR ligand (5 µM, Promega) in Opti-MEM for 15 min. The ligand was then removed, and cells were incubated with Opti-MEM for 30 min. Cells were then trypsinised, resuspended in phosphate-buffered saline (PBS) with 0.5% FBS and analysed using a benchtop flow cytometer (MACSQuant® VYB Flow cytometer Milteny Biotec). For each well, 10000 GFP positive single cells were analysed (gating workflow shown in Supplementary Fig. 18), and TMR mean fluorescence was normalised against a positive control (cells treated with HaLo-Tag TMR ligand but no peptide) and a negative control (non-treated cells). Analysis was performed using FlowJo (LCC) software and Prism GraphPad (Dotmatics). Data were presented as the average ± standard error of three independent replicates.
# [4] = system: calcium influx into cells; assay: Calcium imaging with Calbryte 520 AM; type: cell-based; settings: Calbryte intensity, 25 µM peptide, 60 min
# Experimental: Calbryte™ 520 AM dye (https://www.aatbio.com/products/calbryte-520-am) was used for quantification of calcium influx into cells. Cells were seeded onto 10 mm optical imaging plates at 10^5 cells per dish and allowed to attach overnight. Cells were stained with 10 μM Calbryte dye in normal growth medium for 1 h, 37 °C, 5% CO2, washed once with cell culture medium and imaged using a Nikon Wide-field microscope. A time series was performed, with a 488 laser image taken every second. After 1 min of imaging (baseline readings), PADI4_11 (25 μM), PADI4_11i (25 μM) or calcium ionophore (10 μM, as positive control) were added, and cells were imaged for a further 60 min. Analysis was done using imageJ —region of interest (ROI) were taken for each cell at each time point using ROI manager. Background values (ROI with no cells) were taken at each time point and removed from the same background reading (i.e. ROI at 1 second with cells minus ROI at 1 s background value). An average of at least ten cells was taken for each condition and each average data point was divided by the initial average data point for that cell, to obtain overall response.
CP50 [3],SMILES,inhibition of histone 3 citrullination (H3Cit) in cell lysates containing active cellular PADI4 [1],PADI4 activation in cells (in words) [2],intracellular calcium levels (calcium influx) [4]
–,COc1cc(C(=O)N2CC[C@@H](O)[C@@H](N)C2)cc2nc(-c3cc4ccccc4n3CC3CC3)n(C)c12 [GSK484],required pre-incubation to be active,–,–
2.0 ± 0.5 µM,CC(C)C[C@H](NC(=O)[C@H](CCC(N)=O)NC(=O)[C@H](CC(C)C)NC(=O)[C@@H](NC(=O)[C@H](CCC(N)=O)NC(=O)[C@H](CCCNC(=N)N)NC(=O)[C@H](Cc1ccc(O)cc1)NC(=O)[C@H](CCCNC(=N)N)NC(=O)[C@@H]1CSCC(=O)N[C@@H](Cc2ccc(O)cc2)C(=O)N[C@@H](CO)C(=O)N[C@@H](CCC(=O)O)C(=O)N1)C(C)C)C(N)=O [PADI4_11i] ({CH2CO}-YSECRYRQVLQL-NH2; thioether N-4),–,does not have the same effect,"neither PADI4_11, nor PADI4_11i, were responsible for increased intracellular calcium levels"
